IC50 data for one compound are collected here from article doi:10.1101/2023.02.01.526632v1 (biorxiv, 2023).

Broadly, the pIC50 is the negative decadic logarithm of the IC50, by convention in mol/L. A lower pIC50 goes with a high IC50.

Molecules are shown by their SMILES. pIC50: −log10 of the molar value.

In this assay the target is T1, BAP1 (Homo sapiens, UniProt Q92560).
T1 sequence (Q92560 1-729): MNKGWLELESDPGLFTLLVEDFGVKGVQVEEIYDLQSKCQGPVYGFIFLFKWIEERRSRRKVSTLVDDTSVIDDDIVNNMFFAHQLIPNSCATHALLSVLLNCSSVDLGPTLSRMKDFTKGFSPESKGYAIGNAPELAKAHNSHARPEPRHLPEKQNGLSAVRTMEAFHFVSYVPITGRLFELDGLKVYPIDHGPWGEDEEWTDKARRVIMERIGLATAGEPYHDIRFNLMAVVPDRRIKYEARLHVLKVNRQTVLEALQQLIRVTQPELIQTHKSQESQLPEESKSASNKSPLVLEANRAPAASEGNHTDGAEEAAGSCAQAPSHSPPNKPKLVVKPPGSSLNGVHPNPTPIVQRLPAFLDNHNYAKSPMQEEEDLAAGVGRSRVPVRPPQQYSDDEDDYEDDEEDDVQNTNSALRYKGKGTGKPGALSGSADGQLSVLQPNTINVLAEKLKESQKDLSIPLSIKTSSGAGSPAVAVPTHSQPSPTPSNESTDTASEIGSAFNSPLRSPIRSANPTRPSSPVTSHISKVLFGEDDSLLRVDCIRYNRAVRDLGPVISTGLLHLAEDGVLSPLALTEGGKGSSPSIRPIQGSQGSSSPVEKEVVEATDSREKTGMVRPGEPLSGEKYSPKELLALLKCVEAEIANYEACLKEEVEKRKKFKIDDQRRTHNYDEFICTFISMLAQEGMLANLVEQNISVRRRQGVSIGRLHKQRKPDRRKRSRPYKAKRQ
Put plainly: competition of Biotin-Ahx-Ub-VS labelling, DIA LC-MS/MS. The class given is biochemical. The note with it: covalent; lysate, 3 h preincubation, 0.5 μM ubiquitin probe.

For `O=C(CCl)N1CCCC1c1ccc2c(c1)OCCO2` (stereo not shown) [compound 3, fragment 3], the pIC50 is ~5.00.
